Data reported in PubChem BioAssay (NCI).
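Where inhibition never reached the appropriate level, the endpoint shown equals the highest concentration tested. Otherwise, values were interpolated linearly from a five-concentration, 48-hour dose response in 96-well plates. Here, GI50 denotes the concentration required for 50% inhibition of growth. The concentration for full growth arrest is given as TGI.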

Key:
Assay in all cases: DTP human tumour cell line panel, 48 h
OVCAR-4 ovarian = system: OVCAR-4 ovarian
HOP-62 NSCLC = system: HOP-62 NSCLC
TK-10 renal = system: TK-10 renal
SR leukemia = system: SR leukemia
SF-268 CNS = system: SF-268 CNS
MOLT-4 leukemia = system: MOLT-4 leukemia
HCC-2998 colon = system: HCC-2998 colon
UACC-62 melanoma = system: UACC-62 melanoma
COLO 205 colon = system: COLO 205 colon
SK-OV-3 ovarian = system: SK-OV-3 ovarian

Compound	TGI (OVCAR-4 ovarian)	TGI (HOP-62 NSCLC)	TGI (TK-10 renal)	TGI (SR leukemia)	TGI (SF-268 CNS)	TGI (MOLT-4 leukemia)	TGI (HCC-2998 colon)	TGI (UACC-62 melanoma)	TGI (COLO 205 colon)	TGI (SK-OV-3 ovarian)	GI50 (OVCAR-4 ovarian)	GI50 (TK-10 renal)	GI50 (SR leukemia)	GI50 (SF-268 CNS)	GI50 (MOLT-4 leukemia)	GI50 (HCC-2998 colon)	GI50 (UACC-62 melanoma)	GI50 (COLO 205 colon)	GI50 (SK-OV-3 ovarian)
O=C1CSC(c2cccs2)N1c1nc2cc3sc(N4C(=O)CSC4c4cccs4)nc3cc2s1 (stereo unspecified)	> 50 µM	> 50 µM	> 50 µM	> 50 µM	> 50 µM	> 50 µM	> 50 µM	> 50 µM	3.18 µM	> 50 µM	–	–	–	–	–	–	–	–	–
CNC(=O)N(CCC#N)[C@H]1CCCC[C@@H]1N(C(=O)NC)c1ccccc1	> 100 µM	> 100 µM	> 100 µM	> 100 µM	–	> 100 µM	> 100 µM	> 100 µM	> 100 µM	> 100 µM	–	–	–	–	–	–	–	–	–
O=c1oc2cc(O)ccc2c(O)c1C(c1ccc(C(c2c(O)c3ccc(O)cc3oc2=O)c2c(O)c3ccc(O)cc3oc2=O)cc1)c1c(O)c2ccc(O)cc2oc1=O	> 100 µM	> 100 µM	> 100 µM	> 100 µM	> 100 µM	> 100 µM	> 100 µM	> 100 µM	> 100 µM	> 100 µM	–	–	–	–	–	–	–	–	–
CCC(=O)Oc1c2ccsc2c(OC(=O)CC)c2ccsc12	2.39 µM	2.95 µM	5.25 µM	0.806 µM	2.29 µM	> 100 µM	3.49 µM	0.439 µM	10.6 µM	15.8 µM	–	–	–	–	–	–	–	–	–
COc1cc(I)c2c3c1OC1C34CCN(C)C(C2)C4=CC(I)C1(OC)OC (stereo unspecified)	55.9 µM	46.3 µM	51.1 µM	40.9 µM	61.5 µM	42.4 µM	28.9 µM	42 µM	45.2 µM	68 µM	–	–	–	–	–	–	–	–	–
Cn1c2ccccc2n2c(=O)c3cc([N+](=O)[O-])ccc3c(C#N)c12	> 100 µM	> 100 µM	> 100 µM	> 100 µM	> 100 µM	> 100 µM	> 100 µM	> 100 µM	> 100 µM	> 100 µM	–	–	–	–	–	–	–	–	–
C=C1C(=O)O[C@@]23C1CC[C@@H](C)C2CC[C@@]1(C)OC31 (stereo partly specified)	25.3 µM	39.3 µM	16.8 µM	33.2 µM	34.3 µM	31.8 µM	16.2 µM	27.1 µM	3.68 µM	47.6 µM	–	–	–	–	–	–	–	–	–
COc1ccc2c(c1)CN1C(=N2)CSC1c1ccccc1Cl (stereo unspecified)	45.1 µM	> 100 µM	68 µM	27 µM	76.4 µM	19 µM	29.8 µM	34.6 µM	28.3 µM	79.2 µM	–	–	–	–	–	–	–	–	–
COc1c(C)c2nc3ccccc3[nH]c2c2c(=O)ccnc12	> 100 µM	> 100 µM	> 100 µM	> 100 µM	> 100 µM	> 100 µM	> 100 µM	–	> 100 µM	> 100 µM	–	–	–	–	–	–	–	–	–
Cc1nn(-c2cc(Cl)ccc2[N+](=O)[O-])c(C)c1Cl	> 100 µM	> 100 µM	> 100 µM	> 100 µM	> 100 µM	> 100 µM	> 100 µM	> 100 µM	> 100 µM	> 100 µM	–	–	–	–	–	–	–	–	–
CCNC(=O)C1CCCN1C(=O)C(CCCN=C(N)N)NC(=O)C(CC(C)C)NC(=O)C(Cc1c[nH]c2ccccc12)NC(=O)C(Cc1ccc(O)cc1)NC(=O)C(CO)NC(=O)C(Cc1c[nH]c2ccccc12)NC(=O)C(Cc1cnc[nH]1)NC(=O)C1CCC(=O)N1 (stereo unspecified)	> 100 µM	> 100 µM	> 100 µM	> 100 µM	> 100 µM	> 100 µM	> 100 µM	> 100 µM	> 100 µM	> 100 µM	–	–	–	–	–	–	–	–	–
CCN1CCC(O)(C(C(=O)O)c2ccccc2)CC1 (stereo unspecified)	> 100 µM	> 100 µM	> 100 µM	> 100 µM	> 100 µM	–	> 100 µM	> 100 µM	> 100 µM	> 100 µM	–	–	–	–	–	–	–	–	–
COC(=O)c1ccc(C=Nc2ccc(S(N)(=O)=O)cc2)cc1	> 100 µM	> 100 µM	> 100 µM	> 100 µM	> 100 µM	> 100 µM	> 100 µM	> 100 µM	> 100 µM	> 100 µM	–	–	–	–	–	–	–	–	–
CN(C)S(=O)(=O)Nc1nnc(S(N)(=O)=O)s1	> 100 µM	> 100 µM	> 100 µM	> 100 µM	> 100 µM	> 100 µM	> 100 µM	> 100 µM	> 100 µM	> 100 µM	–	–	–	–	–	–	–	–	–
CCC(C)C(=O)OC1CC2(C)C(c3ccoc3)OC(=O)CC23OC2(C)OC34C(OC(=O)C(C)C)C3(O)C(OC(=O)C5(C)OC5C)C5(C)CC3(O)C(C)(C5CC(=O)OC)C14O2 (stereo unspecified)	> 100 µM	–	> 100 µM	95 µM	> 100 µM	65.8 µM	> 100 µM	> 100 µM	57.5 µM	> 100 µM	–	–	–	–	–	–	–	–	–
CC1(CNCc2ccccc2)CC(CCc2ccccc2)N(C(=O)c2ccc([N+](=O)[O-])cc2)C1Cc1ccc(O)cc1 (stereo unspecified)	28.2 µM	31.1 µM	30.9 µM	> 100 µM	27.6 µM	> 100 µM	27.1 µM	28.9 µM	19.4 µM	34.6 µM	–	–	–	–	–	–	–	–	–
NC(N)=NS(=O)(=O)c1ccc(NC(=O)c2ccc3nc4ccccc4c(Nc4ccc(S(=O)(=O)N=C(N)N)cc4)c3c2)cc1	> 100 µM	> 100 µM	> 100 µM	> 100 µM	> 100 µM	> 100 µM	> 100 µM	> 100 µM	> 100 µM	> 100 µM	–	–	–	–	–	–	–	–	–
COC(=O)C1CC2(c3ccccc3)C(=O)c3ccccc3N2O1 (stereo unspecified)	> 100 µM	> 100 µM	> 100 µM	65.3 µM	> 100 µM	75.8 µM	> 100 µM	> 100 µM	> 100 µM	> 100 µM	–	–	–	–	–	–	–	–	–
CC1(C)C=C(S(=O)(=O)c2ccccc2)Oc2ccccc2O1	> 100 µM	> 100 µM	36 µM	> 100 µM	> 100 µM	71.9 µM	68.5 µM	> 100 µM	35.1 µM	> 100 µM	–	–	–	–	–	–	–	–	–
N#Cc1c(-c2ccc(F)cc2)nc(N/N=C/c2c[nH]c3ccccc23)nc1N1CCOCC1	62.8 µM	–	61 µM	24 µM	> 100 µM	9.63 µM	> 100 µM	27.4 µM	18.2 µM	38.9 µM	16.1 µM	15.5 µM	0.215 µM	17 µM	1.6 µM	9.91 µM	11.4 µM	2.37 µM	8.61 µM
CC1(C)CNC(=O)C2(C=NC(C)(C)CNC(=O)C3(C=N1)CCCO3)CCCO2 (stereo unspecified)	> 10 µM	> 10 µM	> 10 µM	> 10 µM	> 10 µM	> 10 µM	> 10 µM	> 10 µM	> 10 µM	> 10 µM	–	–	–	–	–	–	–	–	–
c1ccc2c3c(c(N4CCOCC4)nc2c1)CCCC3	> 100 µM	> 100 µM	> 100 µM	> 100 µM	> 100 µM	> 100 µM	> 100 µM	> 100 µM	46.5 µM	> 100 µM	–	–	–	–	–	–	–	–	–
O=c1c2ccccc2nc(Nc2cccc(Cl)c2)n1/N=C/C=C/c1ccccc1	> 100 µM	> 100 µM	> 100 µM	> 100 µM	> 100 µM	> 100 µM	> 100 µM	> 100 µM	> 100 µM	> 100 µM	–	–	–	–	–	–	–	–	–
Cc1c2ncccc2cc2oc3ccccc3c(=O)c12	> 100 µM	> 100 µM	> 100 µM	> 100 µM	> 100 µM	23.5 µM	> 100 µM	> 100 µM	> 100 µM	> 100 µM	–	–	–	–	–	–	–	–	–
COC(=O)C1=Nc2c(C)nn(-c3ccccc3)c2N=C(c2ccc([N+](=O)[O-])cc2)C1	> 10 µM	> 10 µM	> 10 µM	> 10 µM	> 10 µM	> 10 µM	> 10 µM	> 10 µM	> 10 µM	> 10 µM	–	–	–	–	–	–	–	–	–
COC1(OC)CCCCC2c3cccc(OC(C)=O)c3C21OC(C)=O (stereo unspecified)	> 100 µM	> 100 µM	> 100 µM	> 100 µM	> 100 µM	> 100 µM	> 100 µM	> 100 µM	> 100 µM	> 100 µM	–	–	–	–	–	–	–	–	–
O=C(Nc1ccccc1C(=O)NCCCO)/C(=C/c1ccccc1O)NC(=O)c1ccccc1	> 100 µM	> 56.5 µM	> 100 µM	> 100 µM	> 100 µM	> 100 µM	> 100 µM	60 µM	> 100 µM	> 100 µM	–	–	–	–	–	–	–	–	–
COc1ccc(Nc2nc3c([nH]2)c(=O)n(C)c(=O)n3C)cc1	> 10 µM	> 10 µM	> 10 µM	> 10 µM	> 10 µM	> 10 µM	> 10 µM	> 10 µM	> 10 µM	> 10 µM	–	–	–	–	–	–	–	–	–
C=C1CC(C)(c2ccc(Nc3nc4ccccc4c4occc34)cc2)OC1=O (stereo unspecified)	7.73 µM	34 µM	16.7 µM	4.53 µM	15.2 µM	–	5.63 µM	–	16.2 µM	24.1 µM	–	–	–	–	–	–	–	–	–
FC(F)(F)c1ccc2nc3n(c2c1)C(c1c(Cl)cccc1Cl)SC3 (stereo unspecified)	30.5 µM	29.8 µM	35.4 µM	21.4 µM	41.8 µM	> 100 µM	35 µM	28.6 µM	–	27.9 µM	–	–	–	–	–	–	–	–	–
